{"source": "patent US5188830A", "about": "“Methods for thrombolytic therapy” (Merck & Co., Inc., priority 1990, dated 1993)", "system": "blood clots", "experiment": "in vitro clot lysis assay (release of solubilized 125I-fibrin-derived fragments, lysis initiated by TPA)", "procedure": "In the assay, whole blood or plasma is charged with ^125 I-fibrinogen. Thrombin is added to initiate clot formation and subsequently incubated for 2 hours to complete the cross-linking by endogenous Factor XIII. Factor XIIIa inhibitor is added prior to clot initiation or at various times during the 2-hour incubation. At the end of this period, the labelled clot is washed and lysis is initiated by exogenous tissue plasminogen activator (TPA). Exogenous plasminogen is employed in some experiments. Endogenous plasminogen is used for others. Clot dissolution as a function of time is monitored by the release of solubilized ^125 I-fibrin-derived fragments.\nIn FIGS. 1 and 2, the open symbols indicate absence of cerulenin and the closed symbols indicate the presence of 200 μM cerulenin at the time of clot formation. Clot lysis is conducted in buffer, pH 7.5; 5 ng/mL TPA represents approximate physiologic concentration. 50 to […] represents pharmacologic concentration range. […] FIG. 2 studies employed glu-plasminogen levels at approximately 10 percent physiologic level (12 μ/mL).", "data": [{"smiles": "C/C=C/C/C=C/CCC(=O)[C@H]1O[C@H]1C(N)=O", "note": "[Cerulenin, 3-(1-oxo-4,7-nonadienyl)-oxiranecarboxamide]", "values": [{"measurement": "rates and extents of clot lysis", "setting": "200 μM cerulenin at clot formation, no exogenous plasminogen, TPA at physiological and pharmacological levels, buffer pH 7.5 (FIG. 1)", "result": "enhanced rates and extents of lysis"}, {"measurement": "rate of TPA catalyzed clot lysis", "setting": "200 μM cerulenin, 12 μg/mL exogenous glu-plasminogen, TPA, buffer pH 7.5 (FIG. 2)", "result": "lysis rates were further enhanced"}]}]}
